A short description of the series: Melting point of oil/aliphatic acid mixtures by differential scanning calorimeter (DSC). The class given is physicochemical. As for the experimental part:
Eleven exemplary pesticidal compositions, each comprising a different mixture ratio of neem oil and octanoic acid, were prepared according to the following description. Each composition comprised a combined 10-20 mg of cold-pressed neem oil and octanoic acid. The neem oil and octanoic acid were passively mixed by commingling in liquid phase in the testing vessel (an aluminum pan with an aluminum cap) at a temperature above each ingredient's melting point. Mixture ratios were determined by weight—e.g. a 10 mg mixture in 60:40 ratio would comprise 6 mg of neem oil and 4 mg of octanoic acid. The mixture's melting point was then measured by a differential scanning calorimeter (DSC), and particularly by a TA Instruments® DSC Q2000™ differential scanning calorimeter. The following method was used for DSC measurement of each mixture: the mixture was equilibrated at 40° C., then isothermally held for 15 minutes, then equilibrated at −30° C., and then ramped at 5° C./minute to 70° C. […]
Eleven exemplary pesticidal compositions, each comprising a different mixture ratio of palm oil and octanoic acid, were prepared according to the following description. […] Mixture ratios were determined by weight—e.g. a 10 mg mixture in 60:40 ratio would comprise 6 mg of palm oil and 4 mg of octanoic acid. The mixture's melting point was then measured by differential scanning calorimeter. […]
Eleven exemplary pesticidal compositions, each comprising a different mixture ratio of coconut oil and octanoic acid, were prepared according to the following description. […] Mixture ratios were determined by weight—e.g. a 10 mg mixture in 60:40 ratio would comprise 6 mg of coconut oil and 4 mg of octanoic acid. The mixture's melting point was then measured by differential scanning calorimeter. […]
Eleven exemplary pesticidal compositions, each comprising a different mixture ratio of karanja oil and octanoic acid, were prepared according to the following description. […] Mixture ratios were determined by weight—e.g. a 10 mg mixture in 60:40 ratio would comprise 6 mg of karanja oil and 4 mg of octanoic acid. […]
(Differential scanning calorimetry records heat flow against a reference as temperature is scanned.)
On to `CCCCCCCCCC(=O)O` [decanoic acid], for which the “Melting Point” value was “about 11.36 °C”.

For `CCCCCCCC/C=C\CCCCCCCC(=O)O` [oleic acid], the “Melting Point” value was “about 11.31 °C”.

Turning to `CC/C=C/CC(=O)O` [trans-3 hexenoic acid], the “Melting Point” value was “about 11.36 °C”.

(Values after patent US20230189821A1, “PESTICIDAL COMPOSITIONS WITH ENHANCED PHYSICAL CHARACTERISTICS” (Terramera, Inc., priority 2020, published 2023).)
